Target: T1, Bovine Serum Albumin (BSA) (Bos taurus, UniProt P02769)
T1 construct: gene ALB
Test: spectrofluorometric titration (tryptophan fluorescence quenching, double-log Stern-Volmer) at […] and […] °C; Kb given is at […] °C
Format: binding
Details: read-out: spectrofluorometric titration (tryptophan fluorescence quenching, double-log Ste) (converted)

T1 sequence (P02769 25-607): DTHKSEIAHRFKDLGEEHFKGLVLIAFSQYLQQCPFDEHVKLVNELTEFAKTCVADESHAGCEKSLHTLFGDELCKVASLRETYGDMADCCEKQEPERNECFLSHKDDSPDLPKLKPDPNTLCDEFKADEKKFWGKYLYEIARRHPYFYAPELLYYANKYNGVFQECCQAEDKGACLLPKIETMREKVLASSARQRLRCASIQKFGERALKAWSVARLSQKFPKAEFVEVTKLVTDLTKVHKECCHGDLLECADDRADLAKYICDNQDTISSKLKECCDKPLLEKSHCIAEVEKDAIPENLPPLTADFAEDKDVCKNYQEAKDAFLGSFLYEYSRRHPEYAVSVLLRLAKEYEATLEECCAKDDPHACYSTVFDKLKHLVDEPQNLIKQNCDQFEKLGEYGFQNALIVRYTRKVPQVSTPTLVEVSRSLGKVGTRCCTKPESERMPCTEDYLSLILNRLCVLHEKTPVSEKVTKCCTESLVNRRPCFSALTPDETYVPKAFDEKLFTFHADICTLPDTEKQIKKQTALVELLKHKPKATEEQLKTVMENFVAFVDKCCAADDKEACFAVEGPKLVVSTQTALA

Question: `Cc1cc(=O)n(CCC(=O)[O][Sn]([CH3])([CH3])[CH3])c2ccccc12` [Me3SnL, (3-(4-methyl-2-oxoquinolin-1(2H)-yl)propanoato)trimethyltin(IV)] was tested. Which Kd did it give?
Answer: 422 nM
